According to patent publication US20210284742A1, “METHODS OF TREATING OR PREVENTING MUCORMYCOSIS” (University of Maryland, Baltimore, priority 2018, published 2021):

Tests used:
[1] = system: A549 alveolar epithelial cells infected with R. delemar spores; test: Measurement of host cell endocytosis of R. delemar by A549 cells (Uvitex differential fluorescence); assay type: cell-based, human; conditions: for endocytosis of R. delemar spores: A549 cells pretreated 1 h with 25 μM Gefitinib or 25 μg/ml Cetuximab, 3 h infection, vs vehicle or IgG1 control antibody
Method: Measurement of host cell endocytosis. 12-mm glass coverslips were seeded with A549 alveolar epithelial cells. […] For controls, host cells will be incubated with DMSO (the solvent used to reconstitute the inhibitor) or 25 μg/ml mouse IgG antibody in parallel. Host cells were then infected with 2×10^5 R. delemar spores. After incubation for 3 h, cells were fixed in 3% paraformaldehyde and stained for 1 h with 1% Uvitex, which specifically binds to chitin in the fungal cell wall. After washing with PBS, coverslips were mounted on a glass slide with a drop of ProLong Gold anti-fade reagent (Molecular Probes) and sealed. The total number of cell-associated organisms (i.e. fungi adhering to the monolayer) per high-powered field were determined by phase-contrast microscopy. The same field will be examined by epifluorescence microscopy, and the number of brightly fluorescent, uninternalized fungi were determined. The number of endocytosed organisms was calculated by subtracting the number of fluorescent fungi from the total number of visible fungi. At least 400 organisms were counted per treatment group in at least 15 different fields per coverslip. Experiments were performed in duplicate or triplicate on at least two separate days.
12-mm glass coverslips in 12 well dishes will be seeded with A549 alveolar epithelial cells. Cells were then pre-treated 1 h with inhibitors. For controls, host cells were incubated with the appropriate amount of diluent used to reconstitute the inhibitor in parallel. Host cells were then infected with 2×10^6 Rdelemar. After incubation for 3 h, cells were fixed in 3% paraformaldehyde and stained for 1 h with 1% Uvitex, which specifically binds to chitin in the fungal cell wall. After washing with PBS, coverslips were mounted on a glass slide with a drop of ProLong Gold anti-fade reagent (Molecular Probes) and sealed. The total number of cell-associated organisms (i.e., fungi adhering to the monolayer) per high-powered field was determined by phase-contrast microscopy. The same exact field was examined by epifluorescence microscopy, and the number of brightly fluorescent, uninternalized fungi will be determined. The number of endocytosed organisms is calculated by subtracting the number of fluorescent organisms from the total number of visible organisms. At least 400 organisms were counted in at least 15 different fields per coverslip. Experiments were performed in duplicate on separate days. Data will be expressed as median f interquartile range.

[2] = system: A549 cells infected with R. delemar; test: R. delemar-induced A549 cell damage (Pierce LDH assay); assay type: cell-based, human
Method: Measurement of R. delemar-induced host cell damage. R. delemar-induced A549 cell damage was quantified using the Pierce LDH Assay with slight modifications to the manufacturer's protocol. Briefly, A549 cells were grown in 96-well tissue culture plates for 18-24 hours. […] For controls, host cells will be incubated with DMSO (the solvent used to reconstitute the inhibitor) or 25 μg/ml of mouse IgG antibody in parallel. After 24 hours of incubation at 37° C., 50 μl of the cell culture supernatant was collected from uninfected, infected, and fungi-only control wells and transferred to a 96 well plate to assay for LDH activity. Lysis buffer was added to all infected wells and incubated for 45 min at 37° C. After lysis, 50 μl of cell culture supernatant was transferred to a 96 well plate and used for the LDH Assay Kit per protocol. LDH release was calculated as follows: % Cytotoxicity=[Experimental release−Fungal Cells Spontaneous Control−Host Cells Spontaneous Control]/[Host Cell Maximum Control−Fungal Cells Maximum Control−Host Cells Spontaneous Control]×100. LDH is a cytosolic enzyme but will be released into the cell culture medium upon cell membrane damage. The amount of extracellular LDH is proportional to the amount of cell damage.
R. delemar-induced A549 cell damage was quantified using the Pierce LDH assay, with slight modifications to the manufacturer's protocol. Briefly, A549 cells were grown in 96-well tissue culture plates for 18 to 24 h. Cells were then pretreated for 1 h with inhibitor and infected with 1×10^6-2×10^6 germlings suspended in 150 μl F-12K plus 10% FBS. For controls, host cells were incubated with the appropriate amount of diluent used to reconstitute the in parallel. After 24 h of incubation at 37° C., 50 μl of the cell culture supernatant was collected from uninfected, infected, and fungus-only control wells and transferred to a 96-well plate to assay for LDH activity. Lysis buffer was added to all infected wells, and the mixture was incubated for 45 min at 37° C. After lysis, 50 μl of cell culture supernatant was transferred to a 96-well plate and used for the LDH assay kit per the protocol. LDH release was calculated as follows: % cytotoxicity=[(experimental release−fungal cell spontaneous control−host cell spontaneous control)/(host cell maximum control−fungal cell maximum control−host cell spontaneous control)]×100. LDH is a cytosolic enzyme but will be released into the cell culture medium upon cell membrane damage. The amount of extracellular LDH is proportional to the amount of cell damage.

R. delemar = test: Growth / germination of R. delemar in the absence of host cells; assay type: cell-based
[3] = system: A549 cells infected with C. bertholletiae; test: C. bertholletiae-induced damage of A549 cells (LDH assay); assay type: cell-based, human; conditions: 25 μM Mifepristone overnight and/or 25 μM Gefitinib 1 h, 24 h infection (FIG. 14)
PGR = PGR translocation to the nucleus during R. delemar infection (confocal microscopy); assay type: cell-based, human; conditions: A549 cells pretreated with Gefitinib 1 h, R. delemar infection 2 h (FIG. 16)
Method: Translocation of host PGR was visualized using the Zeiss LSM Duo confocal microscopy system. 12-mm glass coverslips in 12 well dishes were seeded with A549 alveolar epithelial cells and infected with 2×10^5 R. delemar or R. oryzae that have been incubated in F12K+10% FBS at 37° C. for 2 h. After a 2 h incubation at 37° C., cells were washed with HBSS and fixed with 3% paraformaldehyde. Cells were incubated with anti-PGR (Aviva MS-196-P1, recognizes B) for 1 h or overnight in 0.1% BSA for 1 hour. Coverslips were washed and counterstained with Alexa Fluor 546-labeled goat anti-rabbit or Alexa Fluor 488-goat anti-mouse. After washing, the coverslip will be mounted on a glass slide with a drop of ProLong Gold antifade reagent (Molecular Probes) and viewed by confocal fluorescent microscopy.

[4] = spore preparations pre-treated with drug prior to the infection

COc1cc2ncnc(Nc3ccc(F)c(Cl)c3)c2cc1OCCCN1CCOCC1 [Gefitinib]
endocytosis of R. delemar spores [1]: significantly reduced
endocytosis of R. delemar spores ([1]; listed as Gefinitib): did not completely block
endocytosis after pre-treatment of R. delemar spore preparations [1, 4]: did not reduce
R. delemar-induced damage of A549 cells (LDH assay) ([2]; A549 cells pretreated 1 h with 25 μM Gefitinib or 25 μg/ml Cetuximab, 24 h infection, vs vehicle or IgG1 control antibody): significantly reduced
R. delemar-induced damage of alveolar epithelial cells (LDH assay) ([2]; Example 3, Mifepristone 25 / Gefitinib 25, 24 h infection, vs vehicle (FIG. 12)): significantly decreased
host cell damage after pre-treatment of R. delemar spore preparations [2, 4]: did not reduce
R. delemar mycelial growth (R. delemar): no effect
C. bertholletiae-induced damage [3]: significantly decreased
translocation of PGR from the cytosol to the nucleus (PGR): reduced
